Results taken from ChEMBL document CHEMBL1131956, “Nucleomimetic strategy for the inhibition of HIV-1 nucleocapsid protein NCp7 activities” (1999).

Assays:
[1] = system: Human immunodeficiency virus 1; assay: Affinity for HIV-1 Nucleocapsid Protein (12-53)NCp7 was determined; format: functional
[2] = biological target: Human immunodeficiency virus type 1 reverse transcriptase (Human immunodeficiency virus 1) (UniProt Q72547); assay: Reverse transcriptase activity using an HIV-1 infected cell line at 10 micro M concentration

inhibition [2] [%]	Compound	Affinity [1] [M⁻¹]
–	Cc1cn(C2CC(O)C(NC(=O)CC3CC(n4cnc5c(O)nc(N)nc54)OC3CO)O2)c(=O)[nH]c1=O (configuration not stated)	9
20	Cc1cn(C2CC(CC(=O)NC3OC(n4cnc5c(O)nc(N)nc54)CC3O)C(CO)O2)c(=O)[nH]c1=O (configuration not stated)	–
